Converted amounts (≈) assume the structure as drawn. Where a name gives a salt, the structure may show the parent alone. Read-outs that look alike come from different tables or passages of the source.

Data set [1] deals with extracellular β-lactamases of P. aeruginosa. The class given is biochemical. Particulars: P. aeruginosa culture treated 1 h; imipenem 0.5 μg/ml or ampicillin 100 μg/ml.
Protocol: (c) Nitric oxide release in the presence of supernatants of P. aeruginosa cultures grown for 5 h in the absence of antibiotic then treated for 1 h with extracellular β-lactamase-inducing imipenem a 0.5 μg/ml (thick line) or ampicillin at 100 μg/ml (dotted line). Arrows indicate addition of the following to a reaction vial containing 10 mL Tris buffer at pH 7.0: (i) 10 μL of 150 mM Compound 15, (ii) 500 μL supernatant, (iii) 500 μL supernatant, (iv) PTIO.
Data set [2] has as its system P. aeruginosa PAO1 wild type cells. Put plainly: Planktonic growth inhibition, minimum inhibitory concentration. The class given is cell-based. Particulars: M9 minimal medium, 20 h growth, OD600nm of 35% or less.
Data set [3] deals with β-lactamase (penicillinase, Sigma Aldrich). The experiment in a line: Amperometric nitric oxide release on exposure to penicillinase. Particulars: non-NO-releasing cephalosporin alone, in the presence or absence of penicillinase. The class given is biochemical.
Protocol: Arrows indicate addition of the following to a reaction vial containing 10 mL Tris buffer at pH 7.0: (a) 10 μL of 100 mM cephalosporin-3′-diazeniumdiolate, (b) 10 μl 1 U/μl penicillinase, (c) 20 μl 1 U/μl penicillinase, (d) 80 μL of 10 mM free radical scavenger PTIO.
Amperometric characterization of nitric oxide release from Compound 15. (a) Nitric oxide release in the presence of penicillinase at varying pH. Arrows indicate addition of the following to a reaction vial containing 10 mL Tris buffer at pH 9.0 (thick line), 7.0 (dashed line) or 5.0 (dotted line): (i) 10 μL of 150 mM Compound 15, (ii) 5 μL of 0.1 U/μL penicillinase, (iii) 10 μL of 0.1 U/μL penicillinase, (iv) 80 μL of 10 mM free radical scavenger PTIO. (b) Nitric oxide release in the presence of β-lactamase-expressing P. aeruginosa (thick line) or non-β-lactamase-expressing E. coli (dotted line) cell extracts. Arrows indicate addition of the following to a reaction vial containing 10 mL Tris buffer at pH 7.0: (i) 10 μL of 150 mM Compound 15, (ii) 100 μL cell extract, (iii) 200 μL cell extract, (iv) PTIO. […] The data is representative of at least three independent experiments. […]
Data set [4] concerns P. aeruginosa NSGFP reporter strain (nirS-GFP). The class given is cell-based. Particulars: control treatments alone.
Protocol: To study nitric oxide release in intact cells of P. aeruginosa, the P. aeruginosa NSGFP reporter strain was used (Barraud et al., 2009). This strain harbours a gene reporter construct that expresses green fluorescent protein (GFP) when the nitric oxide-inducible nirS gene is expressed. P. aeruginosa NSGFP cells were grown with or without ampicillin at subinhibitory concentration (50 μg/ml) to induce β-lactamase activity.
Data set [5] concerns P. aeruginosa PAO1 wild type biofilms. The experiment in a line: Biofilm dispersal assay, 24-well batch culture, PAO1. The class given is cell-based. To be noted: 10 min exposure, alone.
Protocol: P. aeruginosa PAO1 wild type ATCC and MA67 strains, P. aeruginosa FRD1, a mucoid, cystic fibrosis (CF) isolate (Oilman and Chakrabarty, 1981), and the clinical strain P. aeruginosa 18A, which was isolated from CF sputum samples of chronically infected individual in Tasmania (Kirov et al, 2007) were used for biofilm dispersal assays. Biofilms were grown in M9 minimal medium (containing 48 mM Na2HPO4, 22 mM KH2PO4, 9 mM NaCl, 19 mM NH4Cl, pH 7.2, 2 mM MgSO4, 20 mM glucose, and 100 μM CaCl2) in 24-well plates batch cultures at 37° C. with shaking at 200 rpm. After 6 h incubation for PAO1 wild-type biofilms or 24 h incubation for FRD1 and 18A biofilms, treatments were added to each well in less than 1 min per plate and the plates were incubated for a further 10 min at 37° C. with shaking at 200 rpm. Planktonic biomass was quantified by direct measurement of OD600 of the supernatant, and the remaining biofilm biomass was quantified by crystal violet staining (O'Toole and Kolter, 1998).
In data set [6] the test system is Established P. aeruginosa biofilms. Put plainly: Anti-biofilm efficacy of tobramycin or ciprofloxacin with compound 21 (Table 1). To be noted: tobramycin 80 μg/mL or ciprofloxacin 5 μg/mL, 1 h, mean ± SEM. The class given is cell-based. The source says:
Values represent the log-fold reductions in cfu compared to control biofilms and are the mean of two independent experiments (±SEM).

Regarding `CC1(C)S[C@@H]2[C@H](NC(=O)[C@H](N)c3ccccc3)C(=O)N2[C@H]1C(=O)O` [ampicillin], in data set [1], the “induction of extracellular β-lactamase expression” value is reported as “failure of ampicillin to induce expression”.

Turning to `CCN(CC)[N+]([O-])=N[O-].[Na+]` [DEA, O^2-sodium 1-(N,N-diethylamino)diazen-1-ium-1,2-diolate], the MIC in data set [2] was determined as 16 mM.

`CCN(CC)/[N+]([O-])=N/OCC1=C(C(=O)O)N2C(=O)C(NC(=O)Cc3ccccc3)C2SC1` (stereo not drawn) (as salt: potassium) [Compound 21] showed a melting point of 35 to 37 °C.

`CC(=O)OCC1=C(C(=O)O)N2C(=O)[C@@H](NC(=O)Cc3cccs3)[C@H]2SC1` [cephalothin]: the nitric oxide release entry in data set [3] is recorded as “no release of nitric oxide was observed”; in data set [3] (listed as cefalotin), “undetectable”. Also, the GFP fluorescence result in data set [4] is “no effect on GFP fluorescence”. Moreover, the biofilm dispersal entry in data set [5] was “did not induce significant dispersal events”. In addition, the minimal inhibitory concentration (MIC) in data set [2] (Pseudomonas aeruginosa, PAO1, read-out: MIC) is 16 mM (≈ 6340 µg/mL).

`CCN(CC)/[N+]([O-])=N/OCC1=C(C(=O)O)N2C(=O)C(NC(=O)Cc3ccccc3)C2SC1` (stereo not drawn) [Compound 15]: the melting point lay within 84 to 86 °C.

In the case of `NC[C@H]1O[C@H](O[C@H]2[C@H](O)[C@@H](O[C@H]3O[C@H](CO)[C@@H](O)[C@H](N)[C@H]3O)[C@H](N)C[C@@H]2N)[C@H](N)C[C@@H]1O` [Tobramycin], the “Log Reduction in Biofilm cfu” value in data set [6] (Compound 21 0 μM (antibiotic alone)) is 2.15 ± 0.16; in data set [6] (with Compound 21 10 μM) it was 3.92 ± 0.06; in data set [6] (with Compound 21 100 μM), 3.58 ± 0.15.

Broadly, the MIC is the lowest concentration that inhibits growth of the organism. One may read the melting point as the temperature of the solid-liquid transition.

Source of the values: patent publication US9156855B2, “Regulation of nitric oxide release and biofilm development” (Newsouth Innovation Pty Limited, priority 2011, dated 2015).
